According to US20210032257A1, “(E)-1-(4-(DIMETHYLAMINO)BUT-2-ENOYL)PYRROLIDIN-3-YL 4-((3-ISOPROPYL-5-METHYLPYRAZOLO[1,5-A]PYRIMIDIN-7-YL)AMINO)PIPERIDINE-1-CARBOXYLATE FOR INHIBITING CDK7” (Eli Lilly and Company, priority 2017, published 2021):

Assays:
Test in all cases: Biomarker study proliferation (CellTiter-Glo)
Format in all cases: cell-based
OV90 = test system: OV90
Procedure: (§1) Cancer cell lines are profiled to evaluate the anti-proliferative activity of a test compound in-vitro. Mutation, copy number and gene expression information of ARID1A, KMT2C, KMT2D and/or RB1 genes across cancer cell lines is obtained from COSMIC database (cancer.sanger.ac.uk) and cBioportal (http://www.cbioportal.org/). Cells are cultured in growth medium and plated into a 96-well plate in 100 μL/well growth medium at 5000 cells/well then incubated at 37° C., 5% CO2 overnight. Cells are cultured using supplier recommended media and conditions well known in the art, for example with RPMI 1640 with or without HEPES & L-Glutamine (Thermo SH30255.01) and 1 mM Sodium Pyruvate, and 10% FBS(Gibco cat #10082). The 1000× intermediate dilution plate is prepared by making a 10 mM working solution of a test sample in DMSO and performing 1:3 dilutions in DMSO for 10 points. The 10× dosing plate is prepared by adding 2 μL from the 1000× intermediate dilution plate to 198 μL of OPTIMEM®+10% FBS and mixing well. The cell plate is then treated by adding 11 μL from the 10× dosing plate into the 100 μL/well cell plate for a 1× final concentration. Staurosporine is used as a maximum growth inhibition control at a final concentration of 5 μM. The cell plate is incubated for 7 days at 37° C., 5% CO2. Seven days after treatment, Cell Titer-Glo® (Promega cat #G7571) assay buffer and substrate are removed from −20° C. and allowed to equilibrate to RT. Assay buffer is added to the substrate and swirled gently to mix. The CELL TITER-GLO® reagent (100 μL/well) is added to the cell plate and incubated at RT for 15 minutes. After 15 minutes, luminescence is read using a plate reader. Data is analyzed in Excel and graphed in GraphPad Prism. Statistical analysis and p value is calculated using Mann-Whitney nonparameteric t tests using GraphPad Prism.
(§2) Anti-proliferative effects of a test compound are categorized as insensitive (IC50≥1 μM), cytostatic (IC50<1 μM and % inhibition <70%) or cytotoxic (IC50<1 μM and % inhibition ≥70%).

SW480 = test system: SW480
Procedure: as §1, §2

22RV1 = test system: 22RV1
Procedure: as §1, §2

CCRFCEM = test system: CCRFCEM
Procedure: as §1, §2

MOLT4 = test system: MOLT4
Procedure: as §1, §2

MCF7 = test system: MCF7
Procedure: as §1, §2

SW837 = test system: SW837
Procedure: as §1, §2

NCIH1975 = test system: NCIH1975
Procedure: as §1, §2

NCIH146 = test system: NCIH146
Procedure: as §1, §2

HT1197 = test system: HT1197
Procedure: as §1, §2

COLO201 = test system: COLO201
Procedure: as §1, §2

HUH28 = test system: HUH28
Procedure: as §1, §2

DMS79 = test system: DMS79
Procedure: as §1, §2

HCC4006 = test system: HCC4006
Procedure: as §1, §2

KYSE30 = test system: KYSE30
Procedure: as §1, §2

NCIH1155 = test system: NCIH1155
Procedure: as §1, §2

TGW = test system: TGW
Procedure: as §1, §2

KYSE150 = test system: KYSE150
Procedure: as §1, §2

KURAMOCHI = test system: KURAMOCHI
Procedure: as §1, §2

[1] = 168 h, read-out: Anti-proliferation effect IC50

## Cc1cc(NC2CCN(C(=O)O[C@H]3CCN(C(=O)/C=C/CN(C)C)C3)CC2)n2ncc(C(C)C)c2n1 [Example 1, [(3S)-1-[(E)-4-(dimethylamino)but-2-enoyl]pyrrolidin-3-yl] 4-[(3-isopropyl-5-methyl-pyrazolo[1,5-a]pyrimidin-7-yl)amino]piperidine-1-carboxylate]
OV90; Homo sapiens, OV-90, 168 h, read-out: Anti-proliferation effect IC50
  IC50: 34 nM
OV90; OV90, OVARY, 7 days
  Anti-proliferation effect % Inh.: 61%
  Anti-proliferation effect Outcome: Cytostatic (cytostatic (IC50<1 μM and % inhibition <70%))
SW480; Homo sapiens, SW480, 168 h, read-out: Anti-proliferation effect IC50
  IC50: 36 nM
SW480; SW480, INTESTINE, 7 days
  Anti-proliferation effect % Inh.: 90%
  Anti-proliferation effect Outcome: Cytotoxic (cytotoxic (IC50<1 μM and % inhibition ≥70%))
22RV1; 22RV1, PROSTATE, 7 days
  Anti-proliferation effect % Inh.: 77%
  Anti-proliferation effect Outcome: Cytotoxic (cytotoxic (IC50<1 μM and % inhibition ≥70%))
22RV1; Homo sapiens, 22Rv1, 168 h, read-out: Anti-proliferation effect IC50
  IC50: 28 nM
CCRFCEM; CCRFCEM, BLOOD, 7 days
  Anti-proliferation effect % Inh.: 96%
  Anti-proliferation effect Outcome: Cytotoxic (cytotoxic (IC50<1 μM and % inhibition ≥70%))
CCRFCEM; Homo sapiens, CCRF-CEM, 168 h, read-out: Anti-proliferation effect IC50
  IC50: 40 nM
MOLT4; Homo sapiens, MOLT-4, 168 h, read-out: Anti-proliferation effect IC50
  IC50: 40 nM
MOLT4; MOLT4, BLOOD, 7 days
  Anti-proliferation effect % Inh.: 99%
  Anti-proliferation effect Outcome: Cytotoxic (cytotoxic (IC50<1 μM and % inhibition ≥70%))
MCF7; Homo sapiens, MCF7, 168 h, read-out: Anti-proliferation effect IC50
  IC50: 155 nM
MCF7; MCF7, BREAST, 7 days
  Anti-proliferation effect % Inh.: 58%
  Anti-proliferation effect Outcome: Cytostatic (cytostatic (IC50<1 μM and % inhibition <70%))
SW837; Homo sapiens, SW837, 168 h, read-out: Anti-proliferation effect IC50
  IC50: 68 nM
SW837; SW837, INTESTINE, 7 days
  Anti-proliferation effect % Inh.: 55%
  Anti-proliferation effect Outcome: Cytostatic (cytostatic (IC50<1 μM and % inhibition <70%))
NCIH1975; Homo sapiens, NCI-H1975, 168 h, read-out: Anti-proliferation effect IC50
  IC50: 21 nM
NCIH1975; NCIH1975, LUNG, 7 days
  Anti-proliferation effect % Inh.: 90%
  Anti-proliferation effect Outcome: Cytotoxic (cytotoxic (IC50<1 μM and % inhibition ≥70%))
NCIH146; Homo sapiens, NCI-H146, 168 h, read-out: Anti-proliferation effect IC50
  IC50: 30 nM
NCIH146; NCIH146, LUNG, 7 days
  Anti-proliferation effect % Inh.: 77%
  Anti-proliferation effect Outcome: Cytotoxic (cytotoxic (IC50<1 μM and % inhibition ≥70%))
HT1197; HT1197, URINARY, 7 days
  Anti-proliferation effect % Inh.: 55%
  Anti-proliferation effect Outcome: Cytostatic (cytostatic (IC50<1 μM and % inhibition <70%))
HT1197; Homo sapiens, HT1197, 168 h, read-out: Anti-proliferation effect IC50
  IC50: 281 nM
COLO201; COLO201, INTESTINE, 7 days
  Anti-proliferation effect % Inh.: 61%
  Anti-proliferation effect Outcome: Cytostatic (cytostatic (IC50<1 μM and % inhibition <70%))
COLO201; Homo sapiens, COLO 201, 168 h, read-out: Anti-proliferation effect IC50
  IC50: 123 nM
HUH28; [1]
  IC50: 2900 nM
HUH28; HUH28, BILIARY, 7 days
  Anti-proliferation effect % Inh.: 32%
  Anti-proliferation effect Outcome: Insensitive (insensitive (IC50≥1 μM))
DMS79; DMS79, LUNG, 7 days
  Anti-proliferation effect % Inh.: 50%
  Anti-proliferation effect Outcome: Cytostatic (cytostatic (IC50<1 μM and % inhibition <70%))
DMS79; Homo sapiens, DMS-79, 168 h, read-out: Anti-proliferation effect IC50
  IC50: 354 nM
HCC4006; HCC4006, LUNG, 7 days
  Anti-proliferation effect % Inh.: 57%
  Anti-proliferation effect Outcome: Cytostatic (cytostatic (IC50<1 μM and % inhibition <70%))
HCC4006; Homo sapiens, HCC4006, 168 h, read-out: Anti-proliferation effect IC50
  IC50: 28 nM
KYSE30; Homo sapiens, KYSE-30, 168 h, read-out: Anti-proliferation effect IC50
  IC50: 76 nM
KYSE30; KYSE30, OESOPHAGUS, 7 days
  Anti-proliferation effect % Inh.: 76%
  Anti-proliferation effect Outcome: Cytotoxic (cytotoxic (IC50<1 μM and % inhibition ≥70%))
NCIH1155; Homo sapiens, NCI-H1155, 168 h, read-out: Anti-proliferation effect IC50
  IC50: 43 nM
NCIH1155; NCIH1155, LUNG, 7 days
  Anti-proliferation effect % Inh.: 51%
  Anti-proliferation effect Outcome: Cytostatic (cytostatic (IC50<1 μM and % inhibition <70%))
TGW; [1]
  IC50: 70 nM
TGW; TGW, BRAIN, 7 days
  Anti-proliferation effect % Inh.: 63%
  Anti-proliferation effect Outcome: Cytostatic (cytostatic (IC50<1 μM and % inhibition <70%))
KYSE150; Homo sapiens, KYSE-150, 168 h, read-out: Anti-proliferation effect IC50
  IC50: 42 nM
KYSE150; KYSE150, OESOPHAGUS, 7 days
  Anti-proliferation effect % Inh.: 64%
  Anti-proliferation effect Outcome: Cytostatic (cytostatic (IC50<1 μM and % inhibition <70%))
KURAMOCHI; [1]
  IC50: 52 nM
KURAMOCHI; KURAMOCHI, OVARY, 7 days
  Anti-proliferation effect % Inh.: 88%
  Anti-proliferation effect Outcome: Cytotoxic (cytotoxic (IC50<1 μM and % inhibition ≥70%))
